Assay results from PubChem BioAssay (NCI).
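Abbreviation: GI50, concentration required for 50% inhibition of growth. TGI denotes the concentration required for complete inhibition of growth.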

Experiments:
Test in all cases: NCI-60 cell line screen, 384-well format
HCT-15 colon = system: HCT-15 colon
MDA-MB-468 breast = system: MDA-MB-468 breast
U251 glioblastoma = system: U251 glioblastoma
SF-295 CNS = system: SF-295 CNS
NCI-H460 NSCLC = system: NCI-H460 NSCLC
NCI-H23 lung = system: NCI-H23 lung
ACHN renal = system: ACHN renal
SF-539 CNS = system: SF-539 CNS
OVCAR-5 ovarian = system: OVCAR-5 ovarian
CCRF-CEM leukemia = system: CCRF-CEM leukemia
SR leukemia = system: SR leukemia
SN12C renal = system: SN12C renal
NCI-H522 lung = system: NCI-H522 lung

## c1ccc2c(NCCCN3CCN(CCCNc4c5ccccc5nc5ccccc45)CC3)c3ccccc3nc2c1
HCT-15 colon
  GI50: 2.58 µM
  TGI: 8.97 µM
MDA-MB-468 breast
  GI50: 0.305 µM
  TGI: 0.67 µM
U251 glioblastoma
  GI50: 0.223 µM
  TGI: 0.766 µM
SF-295 CNS
  GI50: 1.03 µM
  TGI: 3.49 µM
NCI-H460 NSCLC
  GI50: 0.17 µM
  TGI: 0.384 µM
NCI-H23 lung
  GI50: 0.327 µM
  TGI: 1.34 µM
ACHN renal
  GI50: 0.345 µM
  TGI: 2.24 µM
SF-539 CNS
  GI50: 0.159 µM
  TGI: 1.23 µM
OVCAR-5 ovarian
  GI50: 0.378 µM
  TGI: 2.46 µM
CCRF-CEM leukemia
  GI50: 0.118 µM
  TGI: 0.551 µM
SR leukemia
  GI50: 0.155 µM
  TGI: 0.328 µM
SN12C renal
  GI50: 0.0816 µM
  TGI: 0.348 µM
NCI-H522 lung
  GI50: 0.0647 µM
  TGI: 0.26 µM

## CN1CCN(c2ccc(-c3cccc(CN4CCOCC4)c3)cc2NC(=O)c2c[nH]c(=O)cc2C(F)(F)F)CC1
HCT-15 colon
  GI50: 12.3 µM
  TGI: 44.8 µM
MDA-MB-468 breast
  GI50: 12 µM
  TGI: 28.9 µM
U251 glioblastoma
  GI50: 12.1 µM
  TGI: 30.9 µM
SF-295 CNS
  GI50: 17.8 µM
  TGI: 56.8 µM
NCI-H460 NSCLC
  GI50: 8.79 µM
  TGI: 23.5 µM
NCI-H23 lung
  GI50: 17.3 µM
  TGI: > 86.1 µM
ACHN renal
  GI50: 37.9 µM
  TGI: > 100 µM
SF-539 CNS
  GI50: 12.3 µM
  TGI: 28.7 µM
OVCAR-5 ovarian
  GI50: 40.9 µM
  TGI: > 100 µM
CCRF-CEM leukemia
  GI50: 6.98 µM
  TGI: 13.8 µM
SR leukemia
  GI50: 12.2 µM
  TGI: 24.8 µM
SN12C renal
  GI50: > 62.1 µM
  TGI: > 100 µM
NCI-H522 lung
  GI50: 22.8 µM
  TGI: 69.6 µM
